Measurements reported in ChEMBL document CHEMBL1122489, “Pyrimidine derivatives. 4. Synthesis and antihypertensive activity of 4-amino-2-(4-cinnamoylpiperazino)-6,7-dimethoxyquinazoline derivatives” (J Med Chem, 1983).

Tests used:
Type in all cases: functional
Rattus norvegicus [1] = assay: Maximum percent decrease in blood pressure in SHR dosed at 10 mg/kg (hour post dose in parentheses)
Rattus norvegicus [2] = assay: Antihypertensive activity rating in conscious SHR after 3 hr post dose at 10 mg/kg (po)
Rattus norvegicus [3] = assay: Antihypertensive activity rating in conscious SHR after 24 hr post dose at 10 mg/kg (po)
Rattus norvegicus [4] = assay: Antihypertensive activity rating in conscious SHR after 6 hr post dose at 10 mg/kg (po)
Rattus norvegicus [5] = assay: Antihypertensive activity rating in conscious SHR after 1 hr post dose at 10 mg/kg (po)
Rattus norvegicus [6] = assay: Antihypertensive activity rating in conscious SHR after 6 hr post dose at 0.3 mg/kg (po)
Rattus norvegicus [7] = assay: Antihypertensive activity rating in conscious SHR after 3 hr post dose at 0.3 mg/kg (po)
Rattus norvegicus [8] = assay: Antihypertensive activity rating in conscious SHR after 1 hr post dose at 0.3 mg/kg (po)
Rattus norvegicus [9] = assay: Maximum percent decrease in blood pressure in SHR dosed at 0.3 mg/kg (hour post dose in parentheses)
Rattus norvegicus [10] = assay: Antihypertensive activity rating in conscious SHR after 6 hr post dose at 3 mg/kg (po)
Rattus norvegicus [11] = assay: Antihypertensive activity rating in conscious SHR after 24 hr post dose at 3 mg/kg (po)
Rattus norvegicus [12] = assay: Antihypertensive activity rating in conscious SHR after 3 hr post dose at 1 mg/kg (po)
Rattus norvegicus [13] = assay: Antihypertensive activity rating in conscious SHR after 24 hr post dose at 1 mg/kg (po)
Rattus norvegicus [14] = assay: Antihypertensive activity rating in conscious SHR after 6 hr post dose at 1 mg/kg (po)
Rattus norvegicus [15] = assay: Maximum percent decrease in blood pressure in SHR dosed at 1 mg/kg (hour post dose in parentheses)
Rattus norvegicus [16] = assay: Antihypertensive activity rating in conscious SHR after 1 hr post dose at 3 mg/kg (po)
Rattus norvegicus [17] = assay: Antihypertensive activity rating in conscious SHR after 24 hr post dose at 0.3 mg/kg (po)
Rattus norvegicus [18] = assay: Antihypertensive activity rating in conscious SHR after 1 hr post dose at 1 mg/kg (po)
Rattus norvegicus [19] = assay: Maximum percent decrease in blood pressure in SHR dosed at 3 mg/kg (hour post dose in parentheses)
Rattus norvegicus [20] = assay: Antihypertensive activity rating in conscious SHR after 3 h post dose at 3 mg/kg (po)
Rattus norvegicus [21] = assay: Effect on blood pressure in renal hypertensive rats dosed at 10 mg/kg after 6 h
Rattus norvegicus [22] = assay: Effect on blood pressure (initial) in renal hypertensive rats dosed at 10 mg/kg
Rattus norvegicus [23] = assay: Effect on blood pressure in renal hypertensive rats dosed at 10 mg/kg after 3 h
Rattus norvegicus [24] = assay: Effect on mean blood pressure (initial) in renal hypertensive rats dosed at 3 mg/kg
Rattus norvegicus [25] = assay: Effect on blood pressure in renal hypertensive rats dosed at 10 mg/kg after 1 h
Rattus norvegicus [26] = assay: Effect on blood pressure in renal hypertensive rats dosed at 3 mg/kg after 6 h
Rattus norvegicus [27] = assay: Effect on blood pressure in renal hypertensive rats dosed at 10 mg/kg after 24 h
Rattus norvegicus [28] = assay: Effect on blood pressure in renal hypertensive rats dosed at 3 mg/kg after 24 h
Rattus norvegicus [29] = assay: Effect on blood pressure in renal hypertensive rats dosed at 3 mg/kg after 1 h
Rattus norvegicus [30] = assay: Effect on blood pressure in renal hypertensive rats dosed at 3 mg/kg after 3 h
[31] = Potency ratio in rat thoracic aorta
Rattus norvegicus [32] = species on record: Rattus norvegicus; assay: Compound was tested for alpha-adrenoceptor blocking activity by its ability to antagonize norepinephrine contraction in the rat thoracic aorta; details: read-out: pA2 (converted)

| SMILES | Decrease (Rattus norvegicus [1]) [%] | Activity (Rattus norvegicus [2]) | Activity (Rattus norvegicus [3]) | Activity (Rattus norvegicus [4]) | Activity (Rattus norvegicus [5]) | Activity (Rattus norvegicus [10]) | Activity (Rattus norvegicus [11]) | Activity (Rattus norvegicus [12]) | Activity (Rattus norvegicus [13]) | Activity (Rattus norvegicus [14]) | Decrease (Rattus norvegicus [15]) [%] | Activity (Rattus norvegicus [16]) | Activity (Rattus norvegicus [18]) | Decrease (Rattus norvegicus [19]) [%] | Activity (Rattus norvegicus [20]) | also measured |
| --- | --- | --- | --- | --- | --- | --- | --- | --- | --- | --- | --- | --- | --- | --- | --- | --- |
| COc1cc2nc(N3CCN(C(=O)/C=C/c4ccc(OC)c(OC)c4OC)CC3)nc(N)c2cc1OC | 16 | 1 | 0 | 1 | 0 | – | – | – | – | – | – | – | – | – | – | – |
| COc1cc2nc(N3CCN(C(=O)/C=C/c4cccc(C(F)(F)F)c4)CC3)nc(N)c2cc1OC | – | 0 | – | 0 | – | – | – | – | – | – | – | – | – | – | – | – |
| COc1cc2nc(N3CCN(C(=O)/C=C/c4cccs4)CC3)nc(N)c2cc1OC | – | – | – | – | – | 2 | 0 | 1 | 0 | 1 | 14 | 2 | 1 | 24 | 1 | Activity (Rattus norvegicus [6]): 1; Activity (Rattus norvegicus [7]): 0; Activity (Rattus norvegicus [8]): 0; Decrease (Rattus norvegicus [9]): 10%; Activity (Rattus norvegicus [17]): 0 |
| COc1cc2nc(N3CCN(C(=O)/C=C/c4ccc(Cl)c(Cl)c4)CC3)nc(N)c2cc1OC | – | 0 | – | 0 | – | – | – | – | – | – | – | – | – | – | – | – |
| COc1cc2nc(N3CCN(C(=O)/C=C/c4ccccc4C)CC3)nc(N)c2cc1OC | 23 | 2 | 0 | 2 | – | 1 | 0 | 0 | 0 | 0 | 12 | 1 | 1 | 18 | 1 | – |
| COc1cc2nc(N3CCN(C(=O)/C=C/c4ccsc4)CC3)nc(N)c2cc1OC | – | – | – | – | – | 1 | 0 | 1 | 0 | 1 | 19 | 2 | 1 | 25 | 1 | Activity (Rattus norvegicus [6]): 1; Activity (Rattus norvegicus [7]): 1; Activity (Rattus norvegicus [8]): 1; Decrease (Rattus norvegicus [9]): 11%; Activity (Rattus norvegicus [17]): 0 |
| COc1cc2nc(N3CCN(C(=O)/C=C/c4ccc(C(C)C)cc4)CC3)nc(N)c2cc1OC | – | 0 | – | 0 | – | – | – | – | – | – | – | – | – | – | – | – |
| COc1cc2nc(N3CCN(C(=O)/C=C/c4ccccc4)CC3)nc(N)c2cc1OC | – | – | – | – | – | 1 | 0 | 1 | 0 | 1 | 14 | 2 | 1 | 22 | 1 | Activity (Rattus norvegicus [6]): 1; Mean blood pressure (Rattus norvegicus [21]): -15.9 mmHg; Mean blood pressure (Rattus norvegicus [22]): 199 mmHg; Mean blood pressure (Rattus norvegicus [23]): -14.1 mmHg; Mean blood pressure (Rattus norvegicus [24]): 195 mmHg; Mean blood pressure (Rattus norvegicus [25]): -12.6 mmHg; Activity (Rattus norvegicus [7]): 0; Activity (Rattus norvegicus [8]): 0; Decrease (Rattus norvegicus [9]): 10%; Mean blood pressure (Rattus norvegicus [26]): -7.2 mmHg; Mean blood pressure (Rattus norvegicus [27]): -14.1 mmHg; Mean blood pressure (Rattus norvegicus [28]): -0.1 mmHg; Mean blood pressure (Rattus norvegicus [29]): -3.7 mmHg; Mean blood pressure (Rattus norvegicus [30]): -6.8 mmHg; Ratio [31]: 0.07; Activity (Rattus norvegicus [17]): 0; Kb (Rattus norvegicus [32]): 0.724 nM |
| COc1cc2nc(N3CCN(C(=O)/C=C/c4cccc(C)c4)CC3)nc(N)c2cc1OC | 18 | 1 | 0 | 1 | 0 | – | – | – | – | – | – | – | – | – | – | – |
| COc1cc2nc(N3CCN(C(=O)/C=C/c4ccoc4)CC3)nc(N)c2cc1OC | – | – | – | – | – | 1 | 0 | – | – | – | – | 1 | – | 19 | 1 | – |
| CO.COc1cc(/C=C/C(=O)N2CCN(c3nc(N)c4cc(OC)c(OC)cc4n3)CC2)cc(OC)c1 | – | 0 | 0 | 0 | 0 | – | – | – | – | – | – | – | – | – | – | – |
| COc1cc2nc(N3CCN(C(=O)/C=C/c4ccc(C)o4)CC3)nc(N)c2cc1OC.Cl | 22 | 2 | 0 | 1 | 1 | – | – | 0 | 0 | 0 | – | – | 0 | – | – | – |
| COc1cc2nc(N3CCN(C(=O)/C=C/c4sccc4C)CC3)nc(N)c2cc1OC.Cl | 25 | 2 | 1 | 2 | 2 | – | – | 1 | 0 | 1 | 10 | – | 1 | – | – | – |
| COc1cc2nc(N3CCN(C(=O)/C(C)=C/c4ccccc4)CC3)nc(N)c2cc1OC.Cl | – | – | – | – | – | 1 | 0 | 0 | 0 | 1 | 12 | 1 | 0 | 16 | 0 | – |
| COc1cc2nc(N3CCN(C(=O)/C=C/c4ccc(Br)cc4)CC3)nc(N)c2cc1OC.Cl | 12 | 1 | 0 | 1 | 0 | – | – | – | – | – | – | – | – | – | – | – |
| COc1cc2nc(N3CCN(C(=O)/C=C/c4ccc(C)cc4)CC3)nc(N)c2cc1OC.Cl | – | – | – | – | – | 0 | 0 | – | – | – | – | 0 | – | 10 | 1 | – |
| COc1cc2nc(N3CCN(C(=O)/C=C/c4ccc(Cl)cc4)CC3)nc(N)c2cc1OC.Cl | 10 | 0 | – | 1 | – | – | – | – | – | – | – | – | – | – | – | – |
| CCOc1ccccc1/C=C/C(=O)N1CCN(c2nc(N)c3cc(OC)c(OC)cc3n2)CC1.Cl | – | 0 | – | – | 0 | – | – | – | – | – | – | – | – | – | – | – |
| COc1cc2nc(N3CCN(C(=O)/C=C/c4ccc(C)s4)CC3)nc(N)c2cc1OC.Cl | – | – | – | – | – | 0 | 0 | – | – | – | – | 0 | – | 14 | 1 | – |
| COc1cccc(/C=C/C(=O)N2CCN(c3nc(N)c4cc(OC)c(OC)cc4n3)CC2)c1.Cl | 12 | 1 | 0 | 1 | – | – | – | – | – | – | – | – | – | – | – | – |
| COc1cc2nc(N3CCN(C(=O)/C=C/c4ccc(Cl)o4)CC3)nc(N)c2cc1OC.Cl | – | – | – | – | – | 1 | 0 | – | – | – | – | 1 | – | 17 | 1 | – |
| COc1cc2nc(N3CCN(C(=O)/C(C)=C/c4ccco4)CC3)nc(N)c2cc1OC.Cl | – | – | – | – | – | 1 | 0 | 0 | 0 | 1 | 15 | 1 | 0 | 16 | 0 | – |
| COc1cc2nc(N3CCN(C(=O)/C=C/c4cccc([N+](=O)[O-])c4)CC3)nc(N)c2cc1OC.Cl | – | 0 | – | 0 | – | – | – | – | – | – | – | – | – | – | – | – |
| COc1ccccc1/C=C/C(=O)N1CCN(c2nc(N)c3cc(OC)c(OC)cc3n2)CC1.Cl | – | 0 | – | 0 | – | – | – | – | – | – | – | – | – | – | – | – |
| COc1cc2nc(N3CCN(C(=O)/C=C/c4ccc(Cl)s4)CC3)nc(N)c2cc1OC.Cl | 12 | 1 | – | 1 | 1 | – | – | – | – | – | – | – | – | – | – | – |
| COc1cc2nc(N3CCN(C(=O)/C(C)=C/c4cccs4)CC3)nc(N)c2cc1OC.Cl | – | – | – | – | – | 1 | 0 | 1 | 0 | 0 | 14 | 3 | 1 | 34 | 1 | – |
| COc1cc2nc(N3CCN(C(=O)/C=C/c4ccc(OC(C)C)cc4)CC3)nc(N)c2cc1OC.Cl | 19 | 1 | 0 | 1 | 0 | – | – | – | – | – | – | – | – | – | – | – |
| COc1ccc(/C=C/C(=O)N2CCN(c3nc(N)c4cc(OC)c(OC)cc4n3)CC2)cc1 | 23 | 2 | 0 | 2 | 1 | 2 | 0 | 1 | 0 | 1 | 15 | 0 | 0 | 20 | 1 | – |
| Cc1ccc(N(CC2=NCCN2)c2cccc(O)c2)cc1 [PHENTOLAMINE] | – | – | – | – | – | – | – | – | – | – | – | – | – | – | – | Ratio [31]: 0.006; Kb (Rattus norvegicus [32]): 8.51 nM |
